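Five concentrations, 48 hours, 96-well plates. At the GI50, growth is halved.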 Activity calls are given as the source filed them. Cut-off read from the data, not from the text of the source: active = GI50 up to about 1.1 µM and inactive = higher.
Tests used:
Assay in all cases: inhibition of tumour cell growth, NCI panel, 48 h
[1] = system: ACHN
[2] = system: CCRF-CEM
[3] = system: COLO 205
[4] = system: DMS-114
[5] = system: HCC 2998
[6] = system: HCT-116
[7] = system: HOP-62
[8] = system: HOP-92
[9] = system: HT-29
[10] = system: IGROV-1
[11] = system: K562
[12] = system: KM12
[13] = system: LXFL 529
[14] = system: M14
[15] = system: M19-MEL
[16] = system: MOLT-4
[17] = system: Malme-3M
[18] = system: NCI-H23
[19] = system: NCI-H460
[20] = system: NCI-H522
[21] = system: OVCAR-3
[22] = system: OVCAR-4
[23] = system: RPMI-8226
[24] = system: RXF 393
[25] = system: SF-268
[26] = system: SF-295
[27] = system: SF-539
[28] = system: SK-MEL-28
[29] = system: SK-MEL-2
[30] = system: SK-OV-3
[31] = system: SNB-19
[32] = system: SNB-75
[33] = system: SNB-78
[34] = system: UACC-257
[35] = system: UACC-62
[36] = system: UO-31
[37] = system: 786-0
[38] = system: A498
[39] = system: A549
[40] = system: BT-549
[41] = system: CAKI-1
[42] = system: DU-145
[43] = system: EKVX
[44] = system: HCT-15
[45] = system: HL-60
[46] = system: Hs-578T
[47] = system: LOX IMVI
[48] = system: MCF7
[49] = system: MDA-MB-231
[50] = system: MDA-MB-435
[51] = system: MDA-N
[52] = system: NCI-H226
[53] = system: NCI/ADR-RES
[54] = system: OVCAR-5
[55] = system: OVCAR-8
[56] = system: PC-3
[57] = system: SK-MEL-5
[58] = system: SN12C
[59] = system: SR
[60] = system: SW-620
[61] = system: T47D
[62] = system: TK-10
[63] = system: U-251

Measured: GI50

CCN(CC)CC/N=C\c1c(O)c(O)c(C(C)C)c2cc(C)c(-c3c(C)cc4c(C(C)C)c(O)c(O)c(/C=N/CCN(CC)CC)c4c3O)c(O)c12
inactive: [1] 2.66 µM | [3] 3.54 µM | [4] 1.58 µM | [5] 2.11 µM | [6] 1.82 µM | [7] 2.65 µM | [8] 2.38 µM | [9] 1.77 µM | [10] 2.74 µM | [13] 1.46 µM | [14] 1.83 µM | [15] 3.45 µM | [16] 1.29 µM | [17] 4.16 µM | [18] 2.95 µM | [19] 2.32 µM | [21] 1.59 µM | [23] 1.53 µM | [24] 1.33 µM | [25] 4 µM | [26] 1.58 µM | [27] 2.2 µM | [28] 3.17 µM | [29] 2.3 µM | [30] 3.46 µM | [31] 1.65 µM | [32] 5.31 µM | [34] 5.53 µM | [35] 2.55 µM | [36] 2.93 µM
active: [2] 0.354 µM | [11] 1.02 µM | [12] 1.1 µM | [20] 0.959 µM | [22] 0.959 µM | [33] 0.716 µM

C=C(C)C1CC=C(C)C2(C1)OCC(C)(C)C(C)O2 (centres undefined)
inactive: [37] 17.6 µM | [38] 14.6 µM | [39] 17.3 µM | [1] 18.3 µM | [40] 17.3 µM | [41] 16.3 µM | [2] 24.7 µM | [3] 18.1 µM | [42] 31 µM | [43] 24.7 µM | [5] 28.3 µM | [6] 16.3 µM | [45] 15 µM | [7] 16.6 µM | [8] 11.2 µM | [9] 15.5 µM | [46] 27.9 µM | [10] 22.9 µM | [11] 18.5 µM | [12] 16.9 µM | [47] 17.5 µM | [14] 22.2 µM | [48] 17.1 µM | [49] 21.7 µM | [50] 21.3 µM | [51] 21 µM | [16] 20.1 µM | [17] 14.5 µM | [52] 18.3 µM | [18] 20.7 µM | [19] 26.1 µM | [20] 17.7 µM | [53] 17.9 µM | [21] 16.1 µM | [22] 17.1 µM | [54] 19.3 µM | [55] 16.5 µM | [56] 30.1 µM | [23] 17.9 µM | [24] 13.7 µM | [25] 19.8 µM | [26] 19.5 µM | [27] 22.2 µM | [28] 24 µM | [29] 17.8 µM | [57] 15.2 µM | [30] 23.4 µM | [58] 18.2 µM | [31] 18.3 µM | [32] 22 µM | [59] 18.2 µM | [60] 19.1 µM | [61] 18.4 µM | [62] 47.4 µM | [63] 16.7 µM | [34] 21.1 µM | [35] 15.8 µM | [36] 20.3 µM
16.4 µM: [44]

COC(=O)C1Cc2cccc(C)c2C1 (centres undefined)
inactive: [37] > 100 µM | [38] > 100 µM | [39] > 100 µM | [1] > 100 µM | [40] > 100 µM | [41] > 100 µM | [2] 66.5 µM | [3] > 100 µM | [42] > 100 µM | [43] > 100 µM | [5] > 100 µM | [6] > 100 µM | [45] 65.5 µM | [7] > 100 µM | [8] > 100 µM | [9] > 100 µM | [46] > 100 µM | [10] > 100 µM | [11] 48.4 µM | [12] > 100 µM | [47] 42 µM | [14] > 100 µM | [48] 19.1 µM | [49] > 100 µM | [50] > 100 µM | [51] > 100 µM | [16] 46.6 µM | [17] > 100 µM | [52] > 100 µM | [18] > 100 µM | [19] > 100 µM | [20] 51.8 µM | [53] 62.2 µM | [21] > 100 µM | [22] > 100 µM | [54] > 100 µM | [55] > 100 µM | [56] > 100 µM | [23] 93.5 µM | [24] > 100 µM | [25] > 100 µM | [26] > 100 µM | [27] > 100 µM | [28] > 100 µM | [29] > 100 µM | [57] > 100 µM | [30] > 100 µM | [58] > 100 µM | [31] > 100 µM | [32] > 100 µM | [59] 79.3 µM | [60] > 100 µM | [61] > 100 µM | [62] > 100 µM | [63] 89.3 µM | [34] > 100 µM | [35] > 100 µM | [36] > 100 µM
37.3 µM: [44]

Reference: ChEMBL document CHEMBL1201862, “PubChem BioAssay data set” (2004)
